Measured values from patent US20040180941A1, “3-(1-[3-(1,3-Benzothiazol-6-yl)propylcarbamoyl]cycloalkyl)propanoic acid derivatives as NEP inhibitors” (Pfizer Inc, priority 2003, published 2004).

How the values were obtained:
[1] = target: T1, NEP (neutral endopeptidase EC.3.4.24.11), native enzyme isolated from kidneys (Homo sapiens, UniProt P08473); assay: Assay of NEP peptidase activity (fluorogenic peptide substrate), IC50 determination; type: biochemical; details: read-out: activity against NEP expressed as an IC50
T1 construct: NEP is isolated from kidneys following the method described by Kenny and Booth; from tissue
Method: Production of Native NEP Enzyme:
NEP is isolated from kidneys following the method described by Kenny and Booth (Booth, A. G. & Kenny, A. J. (1974) Biochem. J. 142, 575-581).
Assay of SEP or NEP Peptidase Activity
The peptidase activity of SEP or NEP is measured by monitoring its ability to proteolyse the synthetic peptide substrate Rhodamine green-Gly-Gly-dPhe-Leu-Arg-Arg-Val-Cys(QSY7)-βAla-NH2:
Reagents for the assay are first prepared as follows:
A substrate solution is made up by diluting a 2 mM/100% DMSO Rhodamine green-Gly-Gly-dPhe-Leu-Arg-Arg-Val-Cys(QSY7)-βAla-NH2 stock solution in 50 mM HEPES buffer pH7.4 (Sigma, UK) at a concentration of 2 μM.
An aliquot of SEP or NEP enzyme described above is thawed then diluted in 50 mM HEPES, pH7.4 containing 1 EDTA free protease inhibitor cocktail tablet (Roche Diagnostics, UK) per 25 ml. […]
(§1) In a black 384 well microtitre plate, 15 μl of enzyme solution is added to 15 μl of 4% DMSO solution. […] Following incubation a fluorescence measurement is taken (Ex485/Em538). BMG galaxy fluorescence reader (BMG Lab technologies, Offenberg, Germany).
(§2) The proteolytic activity of the enzyme corresponds to the fluorescence of the sample minus the fluorescence of the non-specific background blank.
(§3) A fluorescence measurement taken from 60 μl of product in a well on an identical microtitre plate may be taken. […]

[2] = target: T2, Recombinant SEP (soluble secreted endopeptidase) (Homo sapiens, UniProt Q495T6); assay: Assay of SEP peptidase activity (fluorogenic peptide substrate), IC50 determination; type: biochemical; details: ratio of SEP to NEP inhibition
T2 construct: made in house
T2 sequence (Q495T6 75-779 limits assumed): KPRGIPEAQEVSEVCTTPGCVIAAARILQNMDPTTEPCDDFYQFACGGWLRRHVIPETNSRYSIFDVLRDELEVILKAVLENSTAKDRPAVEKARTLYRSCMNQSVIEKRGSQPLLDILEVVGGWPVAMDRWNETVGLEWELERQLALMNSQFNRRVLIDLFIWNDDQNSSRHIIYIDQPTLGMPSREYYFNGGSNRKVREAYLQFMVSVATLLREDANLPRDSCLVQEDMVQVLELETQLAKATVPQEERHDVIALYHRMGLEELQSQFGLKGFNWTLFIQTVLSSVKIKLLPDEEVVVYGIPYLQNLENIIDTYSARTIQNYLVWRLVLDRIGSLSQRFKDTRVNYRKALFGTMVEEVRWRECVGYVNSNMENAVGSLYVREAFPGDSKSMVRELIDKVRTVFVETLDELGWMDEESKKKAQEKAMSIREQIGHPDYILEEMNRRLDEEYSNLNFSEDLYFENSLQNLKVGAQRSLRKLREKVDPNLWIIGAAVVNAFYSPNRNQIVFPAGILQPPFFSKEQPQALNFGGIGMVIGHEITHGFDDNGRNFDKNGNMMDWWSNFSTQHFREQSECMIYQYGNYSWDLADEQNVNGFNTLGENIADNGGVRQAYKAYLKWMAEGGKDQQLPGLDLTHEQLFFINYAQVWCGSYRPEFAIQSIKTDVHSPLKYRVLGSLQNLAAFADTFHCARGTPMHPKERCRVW
Method: Recombinant SEP enzyme is produced using one of two alternative methods:
Method 1: A culture of Chinese Hamster Ovary (CHO) cells is transfected with the plasmid NCIMB deposit number 41110 using the lipofectamine method as described in the lipofectamine reagent protocol (Invitrogen Ltd, Paisley, UK). The cell media is harvested at 24 or 48 hours post transfection, and cleared of cell debris by centrifugation at 3000 g for 5 min. The media is then dialyzed overnight at 4° C. against 50 mM HEPES pH7.4/10% glycerol, using a “slide a lyser” from Pierce and Warner, Chester UK. The dialyzed sample is then frozen in aliquots and stored under liquid nitrogen. […]
The peptidase activity of SEP or NEP is measured by monitoring its ability to proteolyse the synthetic peptide substrate Rhodamine green-Gly-Gly-dPhe-Leu-Arg-Arg-Val-Cys(QSY7)-βAla-NH2: […]
as §1, §2, §3

T1 sequence (P08473 whole entry): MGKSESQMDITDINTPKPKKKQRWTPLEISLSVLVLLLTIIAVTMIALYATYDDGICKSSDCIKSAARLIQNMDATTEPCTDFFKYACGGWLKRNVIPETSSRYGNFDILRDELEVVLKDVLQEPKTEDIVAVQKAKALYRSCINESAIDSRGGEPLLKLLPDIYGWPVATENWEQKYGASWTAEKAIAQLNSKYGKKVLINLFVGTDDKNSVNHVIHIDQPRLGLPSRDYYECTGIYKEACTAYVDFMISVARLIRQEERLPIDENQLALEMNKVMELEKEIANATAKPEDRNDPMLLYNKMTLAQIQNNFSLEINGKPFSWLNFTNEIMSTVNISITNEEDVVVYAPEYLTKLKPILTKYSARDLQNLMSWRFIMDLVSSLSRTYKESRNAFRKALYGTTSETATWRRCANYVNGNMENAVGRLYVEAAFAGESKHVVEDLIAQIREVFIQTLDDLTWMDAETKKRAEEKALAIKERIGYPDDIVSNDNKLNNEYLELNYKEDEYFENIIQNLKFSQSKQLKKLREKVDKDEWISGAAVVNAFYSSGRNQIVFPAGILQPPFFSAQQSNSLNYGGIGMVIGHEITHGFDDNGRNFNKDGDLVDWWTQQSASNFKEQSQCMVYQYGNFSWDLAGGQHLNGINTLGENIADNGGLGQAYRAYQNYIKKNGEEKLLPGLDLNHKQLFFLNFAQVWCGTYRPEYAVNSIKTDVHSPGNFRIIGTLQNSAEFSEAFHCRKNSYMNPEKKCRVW

Cc1nc2ccc(CCCNC(=O)C3(C[C@@H](C)C(=O)O)CCCC3)cc2s1 [Example 1, (R)-2-Methyl-3-(1-{[3-(2-methyl-1,3-benzothiazol-6-yl)propyl]carbamoyl}cyclopentyl)propanoic acid]
IC50 [1]: 1 nM
melting point: 105 to 106 °C
selectivity for NEP over SEP [2]: 1900 fold

CCc1nc2ccc(CCCNC(=O)C3(CCC(=O)O)CCCC3)cc2s1 [Example 2, 3-(1-{[3-(2-ethyl-1,3-benzothiazol-6-yl)propyl]carbamoyl}cyclopentyl)propanoic acid]
melting point: 127.5 to 129.5 °C
